From patent US4656288A, “Antibiotics, their production and use” (Takeda Chemical Industries, Ltd., priority 1984, dated 1987)
≈ marks a conversion by molar mass, not a printed value. Structures can show the parent of a compound that is named as a salt. One block for each molecule: values may come before it.

Key:
Escherichia coli PG 8 = experiment: Inhibition zone against test microorganism without addition of β-lactamase; format: cell-based; details: test microorganism Escherichia coli PG 8; no β-lactamase added
Penicillinase = biological target: T1, Penicillinase (Bacillus cereus, UniProt P10424); experiment: Stability against β-lactamase (penicillinase), test microorganism Escherichia coli PG 8; format: biochemical; details: Penicillinase derived from Bacillus cereus, -- = No inhibition zone indicated
T1 construct: purchased Calbio Chemical Co. of U.S.A
T1 sequence (P10424 44-306): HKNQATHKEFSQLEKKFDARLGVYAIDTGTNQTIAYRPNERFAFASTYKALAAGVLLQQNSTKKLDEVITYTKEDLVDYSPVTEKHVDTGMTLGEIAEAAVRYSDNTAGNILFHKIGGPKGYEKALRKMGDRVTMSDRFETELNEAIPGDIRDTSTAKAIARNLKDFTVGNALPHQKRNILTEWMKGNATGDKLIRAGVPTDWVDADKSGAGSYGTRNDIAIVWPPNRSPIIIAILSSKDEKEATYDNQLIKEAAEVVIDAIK
Description: *^1 Derived from Bacillus cereus, produced by Calbio Chemical Co. of […]

Solubility = format: physicochemical
Bacillus cereus FDA 5 = experiment: Antimicrobial spectrum, minimal inhibitory concentration; format: cell-based; details: FDA5, Bacto Antibiotic Medium 3 / yeast extract / agar medium, about 10^6 colony forming units/ml
Description: (§1) (Note 1): As the culture medium, there was used a medium consisting of
(§2) 17.5 g of Bacto Antibiotic Medium 3 (produced by Difco Laboratories of
(§3) U.S.A.), 5.0 g of Bacto Yeast extract (produced by Difco Laboratories of
(§4) U.S.A.), […] of Bacto Agar (produced by Difco Laboratories of U.S.A.)
(§5) and 1000 ml of distilled water (without adjustment of pH), while as the
(§6) bacterial inoculation solution, there was used about 10^6 colony
(§7) 17.5 g of Bacto Antibiotic Medium 3 (produced by Difco Laboratories,
(§8) U.S.A.), […] of Bacto Yeast extract (produced by Difco Laboratories,
(§9) U.S.A.), 20 g of Bacto Agar (produced by Difco Laboratories, U.S.A.) and
(§10) 1000 ml of distilled water (without adjustment of pH), while as the
(§11) bacterial inoculation solution, there was employed about 10^6 colony

[1] = system: Serratia marcescens IFO 12648; experiment: as above; format: cell-based; details: IFO12648, Bacto Antibiotic Medium 3 / yeast extract / agar medium, about 10^6 colony forming units/ml
Description: as §1, §2, §3, §4, §5, §6, §7, §8, §9, §10, §11

[2] = system: Micrococcus luteus IFO 12708; experiment: as above; format: cell-based; details: IFO12708, Bacto Antibiotic Medium 3 / yeast extract / agar medium, about 10^6 colony forming units/ml
Description: as §1, §2, §3, §4, §5, §6, §7, §8, §9, §10, §11

[3] = system: Citrobacter freundii IFO 12681; experiment: as above; format: cell-based; details: IFO12681, Bacto Antibiotic Medium 3 / yeast extract / agar medium, about 10^6 colony forming units/ml
Description: as §1, §2, §3, §4, §5, §6, §7, §8, §9, §10, §11

[4] = system: Proteus vulgaris IFO 3988; experiment: as above; format: cell-based; details: IFO3988, Bacto Antibiotic Medium 3 / yeast extract / agar medium, about 10^6 colony forming units/ml
Description: as §1, §2, §3, §4, §5, §6, §7, §8, §9, §10, §11

[5] = system: Staphylococcus aureus FDA 209P; experiment: as above; format: cell-based; details: FDA209P, Bacto Antibiotic Medium 3 / yeast extract / agar medium, about 10^6 colony forming units/ml
Description: as §1, §2, §3, §4, §5, §6, §7, §8, §9, §10, §11

[6] = system: Escherichia coli NIHJ JC 2; experiment: as above; format: cell-based; details: NIHJJC2, Bacto Antibiotic Medium 3 / yeast extract / agar medium, about 10^6 colony forming units/ml
Description: as §1, §2, §3, §4, §5, §6, §7, §8, §9, §10, §11

[7] = system: Alcaligenes faecalis IFO 13111; experiment: as above; format: cell-based; details: IFO13111, Bacto Antibiotic Medium 3 / yeast extract / agar medium, about 10^6 colony forming units/ml
Description: as §1, §2, §3, §4, §5, §6, §7, §8, §9, §10, §11

[8] = system: Pseudomonas aeruginosa IFO 3080; experiment: as above; format: cell-based; details: IFO3080, Bacto Antibiotic Medium 3 / yeast extract / agar medium, about 10^6 colony forming units/ml
Description: as §1, §2, §3, §4, §5, §6, §7, §8, §9, §10, §11

[9] = system: Proteus morganii IFO 3168; experiment: as above; format: cell-based; details: Morganella morganii, IFO3168, Bacto Antibiotic Medium 3 / yeast extract / agar medium, about 10^6 colony forming units/ml
Description: as §1, §2, §3, §4, §5, §6, §7, §8, §9, §10, §11

[10] = system: Bacillus subtilis NIHJ PCI 219; experiment: as above; format: cell-based; details: Bacto Antibiotic Medium 3 / yeast extract / agar medium, about 10^6 colony forming units/ml
Description: as §1, §2, §3, §4, §5, §6, §7, §8, §9, §10, §11

[11] = system: Klebsiella pneumoniae IFO 3317; experiment: as above; format: cell-based; details: IFO3317, Bacto Antibiotic Medium 3 / yeast extract / agar medium, about 10^6 colony forming units/ml
Description: as §1, §2, §3, §4, §5, §6, §7, §8, §9, §10, §11

[12] = system: Acinetobacter calcoaceticus IFO 13006; experiment: as above; format: cell-based; details: IFO13006, Bacto Antibiotic Medium 3 / yeast extract / agar medium, about 10^6 colony forming units/ml
Description: as §1, §2, §3, §4, §5, §6, §7, §8, §9, §10, §11

[13] = system: Salmonella typhimurium IFO 12529; experiment: as above; format: cell-based; details: Salmonella enterica, Bacto Antibiotic Medium 3 / yeast extract / agar medium, about 10^6 colony forming units/ml
Description: as §1, §2, §3, §4, §5, §6, §7, §8, §9, §10, §11

[14] = system: Proteus mirabilis ATCC 21100; experiment: as above; format: cell-based; details: ATCC21100, Bacto Antibiotic Medium 3 / yeast extract / agar medium, about 10^6 colony forming units/ml
Description: as §1, §2, §3, §4, §5, §6, §7, §8, §9, §10, §11

Cephalosporinase = Cephalosporinase (Enterobacter cloacae, UniProt P05364); experiment: Stability against β-lactamase (cephalosporinase), test microorganism Escherichia coli PG 8; format: biochemical; details: Cephalosporinase derived from Enterobacter cloacae, -- = No inhibition zone indicated
Sequence of Cephalosporinase (P05364 21-381): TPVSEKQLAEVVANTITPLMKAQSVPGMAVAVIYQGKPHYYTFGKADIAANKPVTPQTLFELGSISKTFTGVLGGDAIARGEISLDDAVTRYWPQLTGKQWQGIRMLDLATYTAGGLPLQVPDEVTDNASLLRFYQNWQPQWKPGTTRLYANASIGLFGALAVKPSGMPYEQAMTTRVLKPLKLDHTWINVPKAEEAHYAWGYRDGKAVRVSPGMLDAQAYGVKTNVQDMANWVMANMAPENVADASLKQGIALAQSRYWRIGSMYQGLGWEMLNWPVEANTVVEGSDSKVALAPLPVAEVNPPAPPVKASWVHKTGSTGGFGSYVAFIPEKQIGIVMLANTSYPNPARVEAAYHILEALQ
Description: *^2 Derived from Enterobacter cloacae.
*^3 No inhibition zone indicated.

[15] = system: Staphylococcus aureus 308A-1; experiment: Therapeutic effect in the experimental mouse infection; format: in vivo; details: 308A1, sc, Staphylococcus aureus 308A-1, route of administration Subcutaneous
[16] = Stability in an aqueous solution; format: physicochemical
Acute toxicity = format: in vivo; details: administered subcutaneously at a dose of 400 mg/kf
[17] = Interconversion of HPLC peaks A and B on standing in buffers; format: physicochemical; details: buffers of pH 3, 5 and 7 at room temperature
Description: TAN-588 as obtained in this manner has two peaks on the reverse-phase HPLC. These peaks are temporarily referred to as A and B, respectively, whereby the phenomena to be described in the following are observed. […] Therefore, it is thought impossible to separate TAN-588 itself into A and B by means of the presently known separation techniques. However, the conversion of TAN-588 into the p-nitrobenzyl ester or benzhydryl derivative makes it possible for such a compound to be separated into the A type and B type of the compound, respectively.

SMILES: CO[C@@]1(NC(=O)CCC[C@@H](N)C(=O)O)C(=O)N2C(C(=O)O)=C(COC(N)=O)CS[C@@H]21 [CMC, reference compound]
- inhibition zone, β-Lactamase: Without addition (Escherichia coli PG 8): 34
- inhibition zone, β-Lactamase: Penicillinase (Penicillinase): 34

- Solubility in chloroform (Solubility): Sparingly soluble
- Solubility in diethyl ether (Solubility): Sparingly soluble
- Solubility in dimethylsulfoxide (Solubility): Sparingly soluble
- Solubility in ethyl acetate (Solubility): Sparingly soluble
- Solubility in water (Solubility): Soluble
SMILES: N[C@H]1CON([C@]2(C(=O)O)CCC(=O)O2)C1=O [N-deacetyl TAN-588 (A type compound)]

- Solubility in chloroform (Solubility): Sparingly soluble
- Solubility in diethyl ether (Solubility): Sparingly soluble
- Solubility in dimethylsulfoxide (Solubility): Sparingly soluble
- Solubility in ethyl acetate (Solubility): Sparingly soluble
- Solubility in water (Solubility): Soluble
SMILES: N[C@H]1CON([C@@]2(C(=O)O)CCC(=O)O2)C1=O [N-deacetyl TAN-588 (B type compound)]

SMILES: N[C@H]1CON(C2(C(=O)O)CCC(=O)O2)C1=O (stereo partly shown) [N-deacetyl TAN-588]
- MIC (Bacillus cereus FDA 5): 50 µg/mL (≈ 217 µM)
- MIC [1]: 25 µg/mL (≈ 109 µM)
- MIC [2]: 6.25 µg/mL (≈ 27.2 µM)
- MIC [3]: 50 µg/mL (≈ 217 µM)
- MIC [4]: 100 µg/mL (≈ 434 µM)
- MIC [5]: 50 µg/mL (≈ 217 µM)
- MIC [6]: 25 µg/mL (≈ 109 µM)
- MIC [7]: 100 µg/mL (≈ 434 µM)
- MIC [8]: 50 µg/mL (≈ 217 µM)
- MIC [9]: > 100 µg/mL
- MIC [10]: 12.5 µg/mL (≈ 54.3 µM)
- MIC [11]: 100 µg/mL (≈ 434 µM)
- MIC [12]: 50 µg/mL (≈ 217 µM)
- MIC [13]: 50 µg/mL (≈ 217 µM)
- MIC [14]: 100 µg/mL (≈ 434 µM)
- inhibition zone, β-Lactamase: Cephalosporinase (Cephalosporinase): 21.5
- inhibition zone, β-Lactamase: Without addition (Escherichia coli PG 8): 22.5
- inhibition zone, β-Lactamase: Penicillinase (Penicillinase): 24.5
- Solubility in diethyl ether (Solubility): Sparingly soluble
- Solubility in dimethylsulfoxide (Solubility): Sparingly soluble
- Solubility in ethyl acetate (Solubility): Sparingly soluble
- Solubility in water (Solubility): Soluble

SMILES: CC1(C)S[C@@H]2[C@H](NC(=O)Cc3ccccc3)C(=O)N2[C@H]1C(=O)O [PCG]
- inhibition zone, β-Lactamase: Without addition (Escherichia coli PG 8): 22

SMILES: CC(=O)N[C@H]1CON(C2(C(=O)O)CCC(=O)O2)C1=O (stereo partly shown) [TAN-588 sodium salt]
- MIC (Bacillus cereus FDA 5): 12.5 µg/mL
- MIC [1]: 50 µg/mL
- MIC [2]: 0.39 µg/mL
- MIC [3]: 100 µg/mL
- MIC [4]: 25 µg/mL
- MIC [5]: 3.13 µg/mL
- MIC [6]: 50 µg/mL
- MIC [7]: 50 µg/mL
- MIC [8]: > 100 µg/mL
- MIC [9]: 100 µg/mL
- MIC [10]: 3.13 µg/mL
- MIC [11]: 100 µg/mL
- MIC [12]: 25 µg/mL
- MIC [13]: 50 µg/mL
- MIC [14]: 25 µg/mL
- ED50 [15]: 25 mg/kg
- Stability in an aqueous solution ([16]; pH 3 and 7): slightly stable
- Stability in an aqueous solution ([16]; pH 5): Stable
- Stability in an aqueous solution ([16]; pH 9): unstable
- acute toxicity (Acute toxicity): no acute toxicity
- Solubility in chloroform (Solubility): Sparingly soluble
- Solubility in diethyl ether (Solubility): Sparingly soluble
- Solubility in dimethylsulfoxide (Solubility): Soluble
- Solubility in ethyl acetate (Solubility): Sparingly soluble
- Solubility in water (Solubility): Soluble

SMILES: CC(=O)N[C@H]1CON(C2(C(=O)O)CCC(=O)O2)C1=O (stereo partly shown) [TAN-588]
- interconversion of isolated peaks A and B [17]: A turns into B, with B turning into A, about one hour later at any pH values
